Assay results as given in patent US9546157B2, “Asymmetric piperidinyl-substituted ureas as medicines” (Helsinn Healthcare SA, priority 2014, dated 2017).

Key:
GHSR1a [1] = target: T1, GHSR1a (Homo sapiens, UniProt Q92847); test: Calcium FLIPR assay, GHSR-1a agonism; format: cell-based; design: Emax: unit not given here; conditions: HEK293/GHSR1a cells
T1 construct: expressed in transfected cells; host or cells: HEK293
Procedure, shortened: (§1)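 Uses HEK293 cells expressing GHSR1a, loaded with calcium dye, with FLIPR fluorescence followed for 2 min after addition at t=20 s. Agonism: compound alone. Antagonism: compound with 10 nM ghrelin, potency from reduction of ghrelin response; EC50/IC50 from dose-response curves.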

C57BL/6J mice = test: Food intake test in mouse (GHSR1a antagonists); format: in vivo; conditions: for inhibition in vivo at 30 mg/kg: i.p. 30 mg/kg
Method: Male C57BL/6J mice, 18-22 g body weight, were fasted overnight (16 h before compound administration) and placed in a regular light dark cycle (6:00-18:00 light/18:00-6:00 dark). After 1 wk acclimation, animals were sorted into two groups (n=6 each, 2 per cage) based on body weight. Animals in group one were be treated with vehicle and animals in group 2 were treated with the test agent (n=6 for each group). The cumulative food intake was evaluated at 1, 2, 4, 8 and 24 hrs after drug or vehicle treatment. Food intake was measured by subtracting uneaten food from the initial premeasured food.

[2] = Metabolic Stability (M = Mouse); format: in vitro ADME
GHSR1a [3] = target: T1, GHSR1a; test: Calcium FLIPR assay, GHSR-1a antagonism (reduction of ghrelin response); format: cell-based; conditions: HEK293/GHSR1a cells, ghrelin 10 nM
Procedure, shortened: as §1

[4] = Metabolic Stability (H = Human); format: in vitro ADME
[5] = Mus musculus, ip, 1 h, i.p. 10 mg/kg
[6] = Mus musculus, ip, 2 h, i.p. 10 mg/kg

T1 sequence (Q92847 whole entry): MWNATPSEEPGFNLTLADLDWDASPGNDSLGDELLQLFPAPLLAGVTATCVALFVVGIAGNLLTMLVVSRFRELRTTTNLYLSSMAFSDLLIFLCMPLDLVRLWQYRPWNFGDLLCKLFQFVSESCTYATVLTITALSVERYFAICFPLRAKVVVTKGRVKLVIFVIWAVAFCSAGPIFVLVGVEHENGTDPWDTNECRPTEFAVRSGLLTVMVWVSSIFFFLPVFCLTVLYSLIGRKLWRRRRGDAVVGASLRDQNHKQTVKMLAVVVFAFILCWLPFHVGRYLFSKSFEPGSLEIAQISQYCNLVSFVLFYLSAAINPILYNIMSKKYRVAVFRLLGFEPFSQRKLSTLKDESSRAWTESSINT

Row | Compound | EC50 (GHSR1a [1]) | Metabolic Stability M [2] | IC50 (GHSR1a [3]) | Metabolic Stability H [4] | inhibition in vivo at 10 mg/kg (C57BL/6J mice; [5]) | Mouse Food Intake, result in words (C57BL/6J mice; PO, dose not given) | other results
1 | CC(NC(=O)N(C)[C@@H]1CCN(C)CC1(C)C)c1ccc(-c2cnccn2)c(Cl)c1Cl (stereo partly drawn) [Compound H0824, 2-(1-(2,3-dichloro-4-(pyrazin-2-yl)phenyl)ethyl)-1-methyl-1-((R)-1,3,3-trimethylpiperidin-4-yl)urea] | > 30000 nM | Medium | 3 nM | High | – | – | Mouse Food Intake, result in words (C57BL/6J mice; PO 30 mg/kg + ANA mice): PO 30 mg/kg + ANA mice: NSE
2 | COc1ncc(-c2ccc(C(C)NC(=O)N(C)C3CCN(C)CC3)c(Cl)c2Cl)cn1 (stereo not shown) [Compound H0649, 3-(1-(2,3-dichloro-4-(2-methoxypyrimidin-5-yl)phenyl)ethyl)-1-methyl-1-(1-methylpiperidin-4-yl)urea] | 64 nM | High H High M | 18 nM | High H High M | 48% | – | Emax (GHSR1a [1]): 1400; inhibition in vivo at 10 mg/kg (C57BL/6J mice; [6]): 48%
3 | COc1ccc(-c2ccc(C(C)NC(=O)N(C)C3CCN(C)CC3)c(Cl)c2Cl)cn1 (stereo not shown) [Compound H0511, 3-(1-(2,3-dichloro-4-(6-methoxypyridin-3-yl)phenyl)ethyl)-1-methyl-1-(1-methylpiepridin-4-yl)urea] | > 30000 nM | Medium H Medium M | 98 nM | Medium H Medium M | – | – | inhibition in vivo at 30 mg/kg (C57BL/6J mice; Mus musculus, ip, 1 h): 94%
4 | CC(NC(=O)N(C)C1CCN(C)CC1)c1ccc(-c2cncc(F)c2)c(Cl)c1Cl (stereo not shown) [Compound H0614, 3-(1-(2,3-dichloro-4-(5-fluoropyridin-3-yl)phenyl)ethyl)-1-methyl-1-(1-methylpiperidin-4-yl)urea] | > 30000 nM | High H High M | 12 nM | High H High M | – | No IP done, PO: NSE | –
5 | CC(=O)c1ccc(-c2ccc(C(C)NC(=O)N(C)C3CCN(C)CC3)c(Cl)c2Cl)s1 (stereo not shown) [Compound H0655, 3-(1-(4-(5-acetylthiophen-2-yl)-2,3-dichlorophenyl)ethyl)-1-methyl-1-(1-methylpiperidin-4-yl)urea] | > 30000 nM | Medium H Medium M | 12 nM | Medium H Medium M | 70% | – | –
6 | CC(NC(=O)N(O)C1CCN(C)CC1)c1ccc(C(F)F)c(Cl)c1Cl (stereo not shown) [Compound H0621, 3-(1-(2,3-dichloro-4-(difluoromethyl)phenyl)ethyl)-1-hydroxy-1-(1-methylpiperidin-4-yl)urea] | 2 nM | High H High M | > 30000 nM | High H High M | – | – | Emax (GHSR1a [1]): 3896; Mouse Food Intake, result in words (C57BL/6J mice; i.p., dose not given): No Effect
7 | CC(NC(=O)N(C)C1CCN(C)CC1)c1ccc(-c2cncc(C#N)c2)c(Cl)c1Cl (stereo not shown) [Compound H0613, 3-(1-(2,3-dichloro-4-(5-cyanopyridin-3-yl)phenyl)ethyl)-1-methyl-1-(1-methylpiperidin-4-yl)urea] | > 30000 nM | High H High M | 20 nM | High H High M | – | inhibition at 1 h | Mouse Food Intake, result in words (C57BL/6J mice; IP + ANAM 30 mpk PO, at 1 h): inhibition; Mouse Food Intake, result in words (C57BL/6J mice; i.p. 10 mg/kg): NSE
8 | C#Cc1ccc(C(C)NC(=O)N(C)C2CCN(C)CC2)c(Cl)c1Cl (stereo not shown) [Compound H0603, 3-(1-(2,3-dichloro-4-ethynylphenyl)ethyl)-1-methyl-1-(1-methylpiperidin-4-yl)urea] | > 30000 nM | High H High M | 2 nM | High H High M | 34% | – | inhibition in vivo at 0.1 mg/kg (C57BL/6J mice; Mus musculus, ip, 1 h, i.p. 0.1 mpk): 71%; inhibition in vivo at 1 mg/kg (C57BL/6J mice; Mus musculus, ip, 1 h, i.p. 1 mpk): 65%; Mouse Food Intake, result in words (C57BL/6J mice; SC, dose not given): SC NSE; Mouse Food Intake inhibition, activity up to (C57BL/6J mice; i.p. 1 mpk): ≤ 24 h
9 | CC(NC(=O)N(C)C1CCN(C)CC1)c1ccc(-c2cccs2)c(Cl)c1Cl (stereo not shown) [Compound H0536, 3-(1-(2,3-dichloro-4-(thiophen-2-yl)phenyl)ethyl)-1-methyl-1-(1-methylpiperidin-4-yl)urea] | > 30000 nM | Medium H Medium M | 3 nM | Medium H Medium M | – | – | inhibition in vivo at 30 mg/kg (C57BL/6J mice; Mus musculus, ip, 1 h): 76%
10 | COc1cncc(-c2ccc(C(C)NC(=O)N(C)C3CCN(C)CC3)c(Cl)c2Cl)c1 (stereo not shown) [Compound H0607, 3-(1-(2,3-dichloro-4-(5-methoxypyridin-3-yl)phenyl)ethyl)-1-methyl-1-(1-methylpiperidin-4-yl)urea] | 31 nM | Medium H Medium M | 6 nM | Medium H Medium M | – | – | Emax (GHSR1a [1]): 3000; Mouse Food Intake, result in words (C57BL/6J mice; i.p. 10 mg/kg): NSE (10 mg/kg)
11 | C[C@H](NC(=O)N(C)C1CCN(C)C1)c1ccc(-c2cnccn2)c(Cl)c1Cl (single isomer, unassigned) [Compound H0862] | > 30000 nM | medium | 3 nM | High | – | – | Mouse Food Intake, result in words (C57BL/6J mice; PO (10 mg/kg) + ANA, mice, ANA dose not given): PO (10 mg/kg) + ANA: no activity in mice
12 | CC(NC(=O)N(C)C1CCN(C)CC1)c1ccc(/C=C/c2cccs2)c(Cl)c1Cl (stereo not shown) [Compound H0767, (E)-3-(1-(2,3-dichloro-4-(2-(thiophen-2-yl)vinyl)phenyl)ethyl)-1-methyl-1-(1-methylpiperidin-4-yl)urea] | > 30000 nM | High H High M | 37 nM | High H High M | 88% | NSE | –
13 | CC(NC(=O)N(C)C1CCN(C)CC1)c1ccc(Br)c2ccccc12 (stereo not shown) [Compound H0573, 3-(1-(4-bromonaphthalen-1-yl)ethyl)-1-methyl-1-(1-methylpiperidin-4-yl)urea] | > 30000 nM | Medium | 36 nM | High | – | – | Mouse Food Intake, result in words (C57BL/6J mice; PO 30 mg/kg): PO: NSE (30 mg/kg)
14 | Cc1noc(-c2ccc(C(C)NC(=O)N(C)C3CCN(C)CC3)c(Cl)c2Cl)n1 (stereo not shown) [Compound H0596, 3-(1-(2,3-dichloro-4-(3-methyl-1,2,4-oxadiazol-5-yl)phenyl)ethyl)-1-methyl-1-(1-methylpiperidin-4-yl)urea] | 3 nM | High H High M | 9 nM | High H High M | – | – | Mouse Food Intake, result in words (C57BL/6J mice; i.p. 10 mg/kg): NSE (10 mg/kg)
15 | CC(NC(=O)N(C)C1CCN(C)CC1)c1ccc(C#Cc2cccs2)c(Cl)c1Cl (stereo not shown) [Compound H0737, 3-(1-(2,3-dichloro-4-(thiophen-2-ylethynyl)phenyl)ethyl)-1-methyl-1-(1-methylpiperidin-4-yl)urea] | > 30000 nM | High H High M | 13 nM | High H High M | 75% | NSE | –
16 | CN1CCC(N(C)C(=O)NC(c2ccc(-c3cncnc3)c(Cl)c2Cl)C(F)(F)F)CC1 (stereo not shown) [Compound H0686, 3-(1-(2,3-dichloro-4-(pyrimidin-5-yl)phenyl)-2,2,2-trifluoroethyl)-1-methyl-1-(1-methylpiperidin-4-yl)urea] | > 30000 nM | High | 14 nM | Medium | – | NSE | inhibition in vivo at 10 mg/kg (C57BL/6J mice; [6]): 61%; inhibition in vivo at 10 mg/kg (C57BL/6J mice; Mus musculus, ip, 4 h, i.p. 10 mg/kg): 61%
